Data taken from article PMC11187573, “Identification of SARS-CoV-2 Mpro inhibitors through deep reinforcement learning for de novo drug design and computational chemistry approaches” (RSC Medicinal Chemistry, 2024).

Columns and labels:
[1] = test system: host–cell proteases, such as cathepsin L; design: method as in PMID 34726479, PMID 35352927, PMID 33158912; details: cited from earlier work
human Cathepsin L = human Cathepsin L (Homo sapiens, UniProt P07711); test: Fluorimetric human liver Cathepsin L (hCatL) activity assay; type: biochemical; details: reference inhibitor
human Cathepsin L, sequence (P07711 114-333 limits assumed): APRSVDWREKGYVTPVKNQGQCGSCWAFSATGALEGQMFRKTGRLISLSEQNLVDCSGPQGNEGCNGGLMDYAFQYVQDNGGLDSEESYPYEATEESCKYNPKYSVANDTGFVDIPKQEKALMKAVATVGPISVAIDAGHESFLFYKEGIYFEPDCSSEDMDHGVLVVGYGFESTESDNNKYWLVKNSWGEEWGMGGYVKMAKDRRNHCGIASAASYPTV

Compound | inhibitory activity against host–cell proteases, such as cathepsin L [1] | IC50 (human Cathepsin L) [nM]
Nirmatrelvir–ritonavir | no inhibitory activity | 
Cn1cnc(Cn2c(=O)[nH]/c(=N\c3cc4cn(C)nc4cc3Cl)n(Cc3cc(F)c(F)cc3F)c2=O)n1 [ensitrelvir] | no inhibitory activity | 
CC(=O)N[C@@H](CC(C)C)C(=O)N[C@@H](CC(C)C)C(=O)N[C@H](C=O)CCCNC(=N)N [Leupeptin] |  | ~2
